Results: ChEMBL document CHEMBL3632563, “Synthesis of natural phaeosphaeride A derivatives and an in vitro evaluation of their anti-cancer potential” (Bioorg Med Chem Lett, 2015)
Active and inactive are the calls of the source. The rule behind the calls is not given here.

What was measured:
[1] = test system: A549; test: Cytotoxicity against human A549 cells assessed as decrease in cell viability at 10 to 100 uM after 48 hrs by MTT assay; assay type: functional, cell-based
[2] = test system: A549; test: Cytotoxicity against human A549 cells assessed as decrease in cell viability at 10 to 100 uM after 48 hrs by SRB assay; assay type: functional, cell-based; conditions: for EC50: A549, 48 h
[3] = test system: A549; test: Cytotoxicity against human A549 cells assessed as decrease in cell viability at 25 to 100 uM after 48 hrs by SRB assay; assay type: functional, cell-based
[4] = Growth inhibition of human U266 cells; assay type: functional, cell-based; conditions: U-266
[5] = target: Signal transducer and activator of transcription 3 (Homo sapiens, UniProt P40763); test: Inhibition of STAT3 (unknown origin) assessed as reduction in STAT3-DNA binding
Signal transducer and activator of transcription 3, sequence (P40763 whole entry): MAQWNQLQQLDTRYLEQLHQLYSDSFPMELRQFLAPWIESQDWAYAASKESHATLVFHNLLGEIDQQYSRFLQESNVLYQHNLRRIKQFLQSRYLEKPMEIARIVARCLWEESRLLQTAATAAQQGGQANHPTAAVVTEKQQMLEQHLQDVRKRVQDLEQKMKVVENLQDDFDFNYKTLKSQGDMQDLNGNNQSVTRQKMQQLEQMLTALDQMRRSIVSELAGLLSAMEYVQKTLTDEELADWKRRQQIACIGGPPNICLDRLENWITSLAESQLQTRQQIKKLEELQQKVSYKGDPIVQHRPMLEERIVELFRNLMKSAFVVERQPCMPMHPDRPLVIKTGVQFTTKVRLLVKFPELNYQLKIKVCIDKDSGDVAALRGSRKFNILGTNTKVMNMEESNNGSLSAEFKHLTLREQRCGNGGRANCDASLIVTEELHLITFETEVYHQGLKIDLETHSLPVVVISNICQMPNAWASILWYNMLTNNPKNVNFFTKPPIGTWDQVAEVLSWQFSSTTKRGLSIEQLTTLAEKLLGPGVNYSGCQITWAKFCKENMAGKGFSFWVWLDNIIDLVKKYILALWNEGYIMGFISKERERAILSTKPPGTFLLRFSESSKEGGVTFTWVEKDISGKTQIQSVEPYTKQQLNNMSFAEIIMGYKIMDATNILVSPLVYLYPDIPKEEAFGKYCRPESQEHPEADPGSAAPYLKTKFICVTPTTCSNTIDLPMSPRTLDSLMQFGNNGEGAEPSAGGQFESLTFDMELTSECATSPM

## C=C1C2=C(C(=O)N1OC)[C@H](OC(=O)CCl)[C@@](C)(O)[C@H](CCCCC)O2
[1]
  Activity: Active
[2]
  Activity: Dose-dependent effect
  EC50: 33 µM
[3]
  Activity: Active

## CCCCC[C@@H]1OC(/C(C)=N/OC)=C(C(=O)O)[C@H](O)[C@@]1(C)O
[1]
  Activity: inactive
[2]
  Activity: inactive

## CCCCC[C@@H]1OC2=C(C(=O)NC2(COC)OC)[C@H](O)[C@@]1(C)O (some centres undefined)
[1]
  Activity: inactive
[2]
  Activity: inactive

## C=C1C2=C(C(=O)N1OC)[C@H](OC(C)=O)[C@@](C)(O)[C@H](CCCCC)O2
[1]
  Activity: Active
[2]
  Activity: Dose-dependent effect
  EC50: 49 µM
[3]
  Activity: Active

## CO[C@@]12[C@H](COC(N)=O)C3=C(C(=O)C(C)=C(N)C3=O)N1C[C@@H]1N[C@@H]12 [MITOMYCIN]
[2]
  EC50: 5.2 µM

## C=C1C2=C(C(=O)N1OC)[C@H](O)[C@@](C)(O)[C@H](CCCCC)O2
[4]
  EC50: 6.7 µM
[1]
  Activity: Active
[2]
  Activity: Dose-dependent effect
  EC50: 46 µM
[5]
  IC50: 610 µM
[3]
  Activity: Active
